Drawing on ChEMBL document CHEMBL1134060, “Synthesis and evaluation of hexahydrochrysene and tetrahydrobenzofluorene ligands for the estrogen receptor” (Bioorg Med Chem Lett, 2001), this text covers RBA and Response for eleven compounds.

In experiment [1] the target is Estrogen receptor beta (Homo sapiens) (UniProt Q92731). Nature of the experiment: Relative binding affinity for human Estrogen receptor beta compared to estradiol (E2).
Experiment [2] deals with T1, Estrogen receptor (Homo sapiens) (UniProt P03372).
T1 sequence (whole entry): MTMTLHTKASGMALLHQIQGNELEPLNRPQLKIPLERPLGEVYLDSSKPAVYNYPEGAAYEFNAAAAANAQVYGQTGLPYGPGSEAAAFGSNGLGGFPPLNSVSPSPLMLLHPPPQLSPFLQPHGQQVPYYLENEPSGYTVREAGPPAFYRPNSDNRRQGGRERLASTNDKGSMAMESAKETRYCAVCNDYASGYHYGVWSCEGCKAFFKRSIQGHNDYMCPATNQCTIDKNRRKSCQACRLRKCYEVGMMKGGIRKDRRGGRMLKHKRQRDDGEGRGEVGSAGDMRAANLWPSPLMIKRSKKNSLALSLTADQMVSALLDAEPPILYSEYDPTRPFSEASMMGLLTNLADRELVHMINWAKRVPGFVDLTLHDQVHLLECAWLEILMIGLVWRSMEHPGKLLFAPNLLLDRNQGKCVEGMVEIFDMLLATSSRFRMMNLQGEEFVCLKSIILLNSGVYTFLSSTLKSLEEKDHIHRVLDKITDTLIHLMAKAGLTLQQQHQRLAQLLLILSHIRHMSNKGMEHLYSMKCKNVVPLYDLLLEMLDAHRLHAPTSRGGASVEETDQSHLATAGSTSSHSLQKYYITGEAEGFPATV
Kind of experiment: Antagonistic effect on 1 nM estradiol induced transcriptional activation in HEC-1 cells expressing estrogen receptor alpha at 10e-6 M. Format: functional, cell-based.

Experiment [3] has as its target Estrogen receptor beta (Homo sapiens) (UniProt Q92731). Nature of the experiment: Antagonistic effect on 1 nM estradiol induced transcriptional activation in HEC-1 cells expressing estrogen receptor beta at 10e-9 M. Format: functional, cell-based.
Experiment [4] shares this target. Kind of experiment: Antagonistic effect on 1 nM estradiol induced transcriptional activation in HEC-1 cells expressing estrogen receptor beta at 10e-8 M. Format: functional, cell-based.
The target is the same in experiment [5]. Kind of experiment: Antagonistic effect on 1 nM estradiol induced transcriptional activation in HEC-1 cells expressing estrogen receptor beta at 10e-7 M. The format is functional, cell-based.
Experiment [6] has the same target. Kind of experiment: Antagonistic effect on 1 nM estradiol induced transcriptional activation in HEC-1 cells expressing estrogen receptor beta at 10e-6 M. Format: functional, cell-based.
For experiment [7] the target is unchanged. Nature of the experiment: Transcriptional activation in human endometrial carcinoma (HEC-1) cells expressing estrogen receptor beta at 10e-9 M. Format: functional.
Experiment [8] addresses T1, Estrogen receptor (Homo sapiens). Kind of experiment: Antagonistic effect on 1 nM estradiol induced transcriptional activation in HEC-1 cells expressing estrogen receptor alpha at 10e-7 M. The format is functional, cell-based.
In experiment [9] the target is Estrogen receptor beta (Homo sapiens) (UniProt Q92731). Nature of the experiment: Transcriptional activation in human endometrial carcinoma (HEC-1) cells expressing estrogen receptor beta at 10e-6 M. Format: functional.

Estrogen receptor beta (Homo sapiens), sequence (Q92731 whole entry): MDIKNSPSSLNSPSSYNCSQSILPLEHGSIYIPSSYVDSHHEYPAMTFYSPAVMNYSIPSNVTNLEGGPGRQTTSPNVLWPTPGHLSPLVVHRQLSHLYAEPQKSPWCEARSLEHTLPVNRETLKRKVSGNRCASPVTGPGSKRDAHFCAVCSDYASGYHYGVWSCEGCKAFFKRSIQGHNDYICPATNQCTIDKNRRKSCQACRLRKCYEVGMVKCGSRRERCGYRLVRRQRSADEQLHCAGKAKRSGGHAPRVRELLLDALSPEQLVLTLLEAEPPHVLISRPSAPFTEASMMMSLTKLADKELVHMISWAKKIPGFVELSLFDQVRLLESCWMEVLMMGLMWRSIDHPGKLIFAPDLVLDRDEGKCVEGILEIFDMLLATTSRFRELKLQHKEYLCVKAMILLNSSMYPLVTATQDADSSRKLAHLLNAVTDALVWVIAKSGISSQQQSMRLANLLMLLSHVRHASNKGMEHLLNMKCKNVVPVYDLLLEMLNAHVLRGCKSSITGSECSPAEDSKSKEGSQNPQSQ

For `CC[C@@H]1Cc2cc(O)ccc2C2=C1c1ccc(O)cc1C[C@H]2CC`, in experiment [1], the RBA stood at 144%.

In experiment [1], `CCC1c2cc(O)ccc2[C@H]2CCc3cc(O)ccc3[C@@H]12` (stereo in doubt; 17b) came in with an RBA of 280%.

With `Oc1ccc2c(c1)CC[C@@H]1c3ccc(O)cc3C[C@H](c3ccc(OCCN4CCCCC4)cc3)[C@H]21`, in experiment [1], the RBA is 0.06%. The Response in experiment [2] was found to be 25%; in experiment [3] it was 5%; in [4] it was 105%; in [5], 104%.

`Oc1ccc2c(c1)CC[C@@H]1c3ccc(O)cc3[C@H](c3ccc(OCCN4CCCCC4)cc3)[C@H]21` displayed an RBA in experiment [1] of 10%. Moreover, the Response was determined as 5% in experiment [6]; 70% in experiment [7]; 10% in experiment [8]; 5% in [9]; 30% in experiment [4]; 15% in experiment [5].

As for `Oc1ccc2c(c1)C[C@@H]1c3ccc(O)cc3CC[C@H]21`, the RBA in experiment [1] came to 63%.

In [1], `Oc1ccc2c(c1)CC[C@H]1c3ccc(O)cc3CC[C@@H]21` yielded an RBA of 130%.

Consider `CCC1c2cc(O)ccc2[C@H]2CCc3cc(O)ccc3[C@@H]12` (stereo in doubt; 17a), for which the RBA in experiment [1] was 300%.

In turn, `Oc1ccc2c(c1)CCC1=C2CCc2cc(O)ccc21` came in with an RBA in experiment [1] of 6.5%.

Turning to `Oc1ccc2c(c1)CC[C@@H]1c3ccc(O)cc3CC[C@H]21`, the RBA in experiment [1] turned out to be 71%.

As to `CCC1Cc2cc(O)ccc2C2C(CC)Cc3cc(O)ccc3C12` (stereo unspecified), in [1], the RBA turned out to be 16%.

`O=C1c2cc(O)ccc2[C@H]2CCc3cc(O)ccc3[C@@H]12`: in [1], the RBA stood at 2%.
